In article PMC4772377, “Structural insights into Cydia pomonella pheromone binding protein 2 mediated prediction of potentially active semiochemicals” (Scientific Reports, 2016):

Target: CpomPBP2 (Cydia pomonella, UniProt I3ZNT9)
Test: Competitive fluorescence binding assay with 1-NPN probe
Conditions: 2 μM CpomPBP2 and 2 μM 1-NPN, 50 mM Tris-HCl pH 6.8 (text: pH7.0); calculated from IC50; read-out: KD (dissociation constant of competitor)

CpomPBP2, sequence (I3ZNT9 26-169 limits assumed): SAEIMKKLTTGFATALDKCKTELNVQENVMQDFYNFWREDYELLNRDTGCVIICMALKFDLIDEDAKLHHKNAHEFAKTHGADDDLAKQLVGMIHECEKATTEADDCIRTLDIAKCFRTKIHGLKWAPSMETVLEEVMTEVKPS

Kd	SMILES
97 ± 2.26 µM	CCC=CCCOC(=O)C(C)CC (stereo not drawn) [Z-3-Hexenyl-2-Methylbutanoate]
6.99 ± 0.72 µM	CCCCCCC/C=C/C=C/C=O [E,E-2,4-Dodecadienal]
16.2 ± 0.84 µM	CCCCCCOC(=O)CCCCC [Hexyl Hexanoate]
